# Measured values taken from patent US7880007B2, “Bicyclic substituted phenyl piperidine modulators of muscarinic receptors” (Vertex Pharmaceuticals Incorporated, priority 2004, dated 2011).
# What was measured:
# Assay type in all cases: cell-based
# M2 muscarinic receptor = target: T1, M2 muscarinic receptor (Homo sapiens, UniProt P08172); assay: Functional mobilization of intracellular calcium (FLIPR), M2-CHO cells; conditions: for Emax: 100% efficacy = maximum response obtained with the Carbachol control; for M2 Activity: M2-CHO cells, calcium mobilization (FLIPR)
# T1 construct: expressed in transfected cells; host or cells: CHO (M2-CHO)
# T1 sequence (P08172 1-466): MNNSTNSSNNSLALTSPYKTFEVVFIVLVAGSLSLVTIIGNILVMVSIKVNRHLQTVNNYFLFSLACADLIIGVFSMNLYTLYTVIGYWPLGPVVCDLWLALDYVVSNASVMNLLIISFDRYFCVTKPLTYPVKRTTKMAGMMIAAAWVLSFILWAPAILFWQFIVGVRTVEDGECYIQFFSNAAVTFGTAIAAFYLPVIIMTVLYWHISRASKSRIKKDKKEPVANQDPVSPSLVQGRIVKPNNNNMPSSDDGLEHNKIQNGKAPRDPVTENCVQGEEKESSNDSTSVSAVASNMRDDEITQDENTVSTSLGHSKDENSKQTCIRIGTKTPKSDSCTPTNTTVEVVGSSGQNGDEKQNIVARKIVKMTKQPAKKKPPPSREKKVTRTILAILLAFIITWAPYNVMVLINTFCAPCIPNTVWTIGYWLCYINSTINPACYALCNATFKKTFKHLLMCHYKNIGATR
# Procedure, shortened: (§1)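 FLIPR fluorescence (ex 488, em 540 nm) recorded 60 sec after compound addition to dye-loaded CHO cells. Agonist mode: compound alone. Antagonist mode: 15 min compound pre-incubation, then carbachol at EC80, or co-application. Efficacy expressed as % of maximal carbachol response.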
# M1 muscarinic receptor = target: T2, M1 muscarinic receptor (Homo sapiens, UniProt P11229); assay: Functional mobilization of intracellular calcium (FLIPR), M1-CHO cells; conditions: for Emax: 100% efficacy = maximum response obtained with the Carbachol control; for M1 Activity: M1-CHO cells, calcium mobilization (FLIPR)
# T2 construct: expressed in transfected cells; host or cells: CHO (M1-CHO)
# T2 sequence (P11229 1-460): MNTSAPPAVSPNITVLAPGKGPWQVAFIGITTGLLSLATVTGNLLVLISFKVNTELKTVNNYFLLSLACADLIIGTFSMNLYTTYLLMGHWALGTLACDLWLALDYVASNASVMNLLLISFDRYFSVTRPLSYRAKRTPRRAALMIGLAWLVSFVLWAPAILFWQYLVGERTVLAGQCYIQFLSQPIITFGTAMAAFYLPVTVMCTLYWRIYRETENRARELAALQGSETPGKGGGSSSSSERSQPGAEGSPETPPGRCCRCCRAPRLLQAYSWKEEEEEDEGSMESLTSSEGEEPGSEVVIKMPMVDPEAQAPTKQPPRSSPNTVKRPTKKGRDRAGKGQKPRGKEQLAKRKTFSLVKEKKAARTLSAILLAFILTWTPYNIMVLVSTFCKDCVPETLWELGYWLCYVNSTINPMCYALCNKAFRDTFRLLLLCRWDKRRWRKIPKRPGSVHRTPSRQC
# Procedure, shortened: as §1
# M4 muscarinic receptor = target: T3, M4 muscarinic receptor (Homo sapiens, UniProt P08173); assay: Functional mobilization of intracellular calcium (FLIPR), M4-CHO cells; conditions: for Emax: 100% efficacy = maximum response obtained with the Carbachol control; for M4 Activity: M4-CHO cells, calcium mobilization (FLIPR)
# T3 construct: expressed in transfected cells; host or cells: CHO (M4-CHO)
# T3 sequence (P08173 1-479): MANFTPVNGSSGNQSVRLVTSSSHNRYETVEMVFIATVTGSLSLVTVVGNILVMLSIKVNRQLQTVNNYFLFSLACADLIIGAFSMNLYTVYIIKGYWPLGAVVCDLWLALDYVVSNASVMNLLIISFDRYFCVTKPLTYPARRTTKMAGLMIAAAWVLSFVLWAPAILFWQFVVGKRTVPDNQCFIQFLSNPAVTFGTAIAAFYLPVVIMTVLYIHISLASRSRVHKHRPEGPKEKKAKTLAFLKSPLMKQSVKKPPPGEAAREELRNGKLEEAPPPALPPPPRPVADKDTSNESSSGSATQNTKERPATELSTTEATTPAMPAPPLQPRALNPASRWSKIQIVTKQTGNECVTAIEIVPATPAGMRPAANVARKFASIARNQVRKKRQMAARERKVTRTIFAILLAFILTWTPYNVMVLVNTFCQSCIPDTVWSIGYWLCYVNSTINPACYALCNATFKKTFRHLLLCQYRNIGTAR
# Procedure, shortened: as §1
# M3 muscarinic receptor = target: T4, M3 muscarinic receptor (Homo sapiens, UniProt P20309); assay: Functional mobilization of intracellular calcium (FLIPR), M3-CHO cells; conditions: for Emax: 100% efficacy = maximum response obtained with the Carbachol control; for M3 Activity: M3-CHO cells, calcium mobilization (FLIPR)
# T4 construct: expressed in transfected cells; host or cells: CHO (M3-CHO)
# Procedure, shortened: as §1
# T4 sequence (P20309 whole entry): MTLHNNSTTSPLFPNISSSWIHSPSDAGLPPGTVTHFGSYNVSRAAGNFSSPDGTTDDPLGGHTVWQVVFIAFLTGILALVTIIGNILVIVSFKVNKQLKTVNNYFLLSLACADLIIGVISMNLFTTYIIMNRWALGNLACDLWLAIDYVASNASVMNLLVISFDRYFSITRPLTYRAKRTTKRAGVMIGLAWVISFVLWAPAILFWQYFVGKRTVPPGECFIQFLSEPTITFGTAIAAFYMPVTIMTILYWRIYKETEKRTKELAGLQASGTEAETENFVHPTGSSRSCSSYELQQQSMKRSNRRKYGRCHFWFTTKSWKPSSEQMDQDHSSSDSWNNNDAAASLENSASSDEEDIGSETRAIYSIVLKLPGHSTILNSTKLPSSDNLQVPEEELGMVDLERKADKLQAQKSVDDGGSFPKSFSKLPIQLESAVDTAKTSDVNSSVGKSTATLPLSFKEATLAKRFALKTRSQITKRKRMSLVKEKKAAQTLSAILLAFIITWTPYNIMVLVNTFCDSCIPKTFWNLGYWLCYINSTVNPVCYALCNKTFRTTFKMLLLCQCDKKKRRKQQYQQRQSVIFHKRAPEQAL
SMILES,Emax (M2 muscarinic receptor) [%],Emax (M1 muscarinic receptor) [%],Emax (M4 muscarinic receptor) [%],Emax (M3 muscarinic receptor) [%],M2 Activity (M2 muscarinic receptor),M1 Activity (M1 muscarinic receptor),M4 Activity (M4 muscarinic receptor),M3 Activity (M3 muscarinic receptor)
CCOC(=O)N1CCC(CN2CCC(c3cc(C(F)(F)F)ccc3C)CC2)CC1 [Compound 94],25 to 100,25 to 100,25 to 100,< 25,+++ (activity was measured to be less than 1.0 μM),+++ (activity was measured to be less than 1.0 μM),+++ (activity was measured to be less than 1.0 μM),++ (activity was measured to be from 1.0 μM to 5.0 μM)
COc1c(F)cc(F)cc1C1CCN([C@@H]2C[C@H]3CC[C@H]2C3)CC1 [Compound 103],< 25,< 25,< 25,< 25,+ (activity was measured to be greater than 5.0 μM),+ (activity was measured to be greater than 5.0 μM),++ (activity was measured to be from 1.0 μM to 5.0 μM),+ (activity was measured to be greater than 5.0 μM)
COc1ccc(F)cc1C1CCN(CC2CC3CCC2CC3)CC1 (stereo not drawn) [Compound 104],< 25,< 25,25 to 100,< 25,+ (activity was measured to be greater than 5.0 μM),+ (activity was measured to be greater than 5.0 μM),++ (activity was measured to be from 1.0 μM to 5.0 μM),+ (activity was measured to be greater than 5.0 μM)
CCOC(=O)N1CCC(CN2CCC(OC)(c3cc(Cl)ccc3OC)CC2)CC1 [Compound 108],< 25,25 to 100,25 to 100,< 25,++ (activity was measured to be from 1.0 μM to 5.0 μM),+++ (activity was measured to be less than 1.0 μM),+++ (activity was measured to be less than 1.0 μM),+ (activity was measured to be greater than 5.0 μM)
c1ccc(-c2ccccc2C2CCN([C@H]3C[C@H]4CC[C@H]3C4)CC2)cc1 [Compound 110],< 25,< 25,25 to 100,< 25,+ (activity was measured to be greater than 5.0 μM),+ (activity was measured to be greater than 5.0 μM),++ (activity was measured to be from 1.0 μM to 5.0 μM),+ (activity was measured to be greater than 5.0 μM)
COCCOc1ccccc1C1CCN([C@H]2C[C@H]3CC[C@H]2C3)CC1 [Compound 111],25 to 100,25 to 100,25 to 100,< 25,+ (activity was measured to be greater than 5.0 μM),++ (activity was measured to be from 1.0 μM to 5.0 μM),+++ (activity was measured to be less than 1.0 μM),+ (activity was measured to be greater than 5.0 μM)

# Continued, in another order:
Emax (M2 muscarinic receptor) [%],Emax (M1 muscarinic receptor) [%],Emax (M4 muscarinic receptor) [%],Emax (M3 muscarinic receptor) [%],SMILES,M2 Activity (M2 muscarinic receptor),M1 Activity (M1 muscarinic receptor),M4 Activity (M4 muscarinic receptor),M3 Activity (M3 muscarinic receptor)
< 25,< 25,25 to 100,< 25,COc1ccc(-c2cccc(C#N)c2)cc1C1CCN([C@H]2C[C@H]3CC[C@H]2C3)CC1 [Compound 97],+ (activity was measured to be greater than 5.0 μM),+ (activity was measured to be greater than 5.0 μM),+ (activity was measured to be greater than 5.0 μM),+ (activity was measured to be greater than 5.0 μM)
< 25,< 25,< 25,< 25,CCN(CC)C(=O)c1ccc(-c2ccc(OC)c(C3CCN([C@H]4C[C@H]5CC[C@H]4C5)CC3)c2)cc1 [Compound 98],+ (activity was measured to be greater than 5.0 μM),+ (activity was measured to be greater than 5.0 μM),++ (activity was measured to be from 1.0 μM to 5.0 μM),+ (activity was measured to be greater than 5.0 μM)
< 25,< 25,25 to 100,< 25,CNC(=O)c1ccc(-c2ccc(OC)c(C3CCN(C4CC5CCC(C5)C4)CC3)c2)cc1Cl (stereo not drawn) [Compound 100],+ (activity was measured to be greater than 5.0 μM),+ (activity was measured to be greater than 5.0 μM),++ (activity was measured to be from 1.0 μM to 5.0 μM),+ (activity was measured to be greater than 5.0 μM)
< 25,< 25,25 to 100,< 25,COc1ccc(-c2ccc(S(C)(=O)=O)cc2)cc1C1CCN([C@H]2C[C@H]3CC[C@H]2C3)CC1 [Compound 102],+ (activity was measured to be greater than 5.0 μM),+ (activity was measured to be greater than 5.0 μM),++ (activity was measured to be from 1.0 μM to 5.0 μM),+ (activity was measured to be greater than 5.0 μM)
25 to 100,25 to 100,25 to 100,< 25,COc1ccc(-c2ccc(C(C)(C)C#N)cc2)cc1C1CCN(C2CCCCC2)CC1 [Compound 105],+ (activity was measured to be greater than 5.0 μM),++ (activity was measured to be from 1.0 μM to 5.0 μM),+ (activity was measured to be greater than 5.0 μM),+ (activity was measured to be greater than 5.0 μM)
25 to 100,25 to 100,25 to 100,< 25,CCOC(=O)N1CCC(N2CCC(c3cc(F)ccc3OC)CC2)CC1 [Compound 106],+++ (activity was measured to be less than 1.0 μM),+++ (activity was measured to be less than 1.0 μM),+++ (activity was measured to be less than 1.0 μM),+++ (activity was measured to be less than 1.0 μM)
< 25,25 to 100,25 to 100,< 25,COc1ccc(C(=O)C(C)(C)C)cc1C1CCN([C@H]2C[C@H]3CC[C@H]2C3)CC1 [Compound 109],+ (activity was measured to be greater than 5.0 μM),++ (activity was measured to be from 1.0 μM to 5.0 μM),+ (activity was measured to be greater than 5.0 μM),+ (activity was measured to be greater than 5.0 μM)
< 25,< 25,25 to 100,< 25,COc1ccccc1C1CCN(C2CC3CC(C)CC(C3)C2)CC1 (stereo not drawn) [Compound 112],+ (activity was measured to be greater than 5.0 μM),+ (activity was measured to be greater than 5.0 μM),+ (activity was measured to be greater than 5.0 μM),+ (activity was measured to be greater than 5.0 μM)
< 25,25 to 100,25 to 100,< 25,COc1ccccc1C1CCN(C2CCCCC2)CC1 [Compound 113],+ (activity was measured to be greater than 5.0 μM),++ (activity was measured to be from 1.0 μM to 5.0 μM),+++ (activity was measured to be less than 1.0 μM),+ (activity was measured to be greater than 5.0 μM)
